Legend:
Assay type in all cases: cell-based
MCF7 cells = assay: Cytotoxicity test, Cell Counting Kit-8, 72 hours; conditions: Homo sapiens, MCF7, breast cancer cells, 0.3 to 300 nM
Method: (§1) The experiment was carried out in the same manner as that in the case of using KR12. The cells used in the experiment were MCF7 cells and MDA-MB-231 cells. These cells were cultured in a DMEM, 10% FBS and 1% Pen/St medium, and in an RPMI1640, 10% FBS and 1% Pen/St medium, respectively. The cells of each type were seeded in each well of a 96-well plate at a cell density of 1000 cells/50 μl/well, and were then cultured under conditions of 37° C., 5% CO2, and saturated humidity for 24 hours. Thereafter, a reagent was diluted with a medium (final concentration: 1, 3, 10, 30, and 100 nM), and the diluted reagent was then added to the cultured cells in an amount of 50 μl/well, and the obtained mixture was then blended. The thus obtained mixture was cultured again under conditions of 37° C., 5% CO2, and saturated humidity for 72 hours. Thereafter, Cell Counting Kit-8 (DOJINDO) was added to the obtained culture in an amount of 10 μl/well, and the thus obtained mixture was blended and was then cultured under conditions of 37° C., 5% CO2, and saturated humidity for 2 hours. The absorbance was measured using Microplate Reader MTP-310 Lab (COLONA ELECTORIC), and the IC50 value was then calculated.

IMR-32 cells = assay: Cytotoxicity test, Cell Counting Kit-8, 72 hours; conditions: Homo sapiens
Method: as §1, with “Kelly cells, SK-N-SH cells, IMR-32 cells, SK-N-AS cells,” for “MCF7 cells”
as §1, with “IMR-32” for “MCF7”, “TGW” for “MDA-MB-231”

TGW cells = assay: Cytotoxicity test, Cell Counting Kit-8, 72 hours
Method: as §1, with “IMR-32” for “MCF7”, “TGW” for “MDA-MB-231”

HDF cells = assay: Cell growth measurement test, 72 hours; conditions: fibroblasts, 0.3 to 300 nM
HT29 cells = assay: Cell growth measurement test, 72 hours; conditions: Homo sapiens, HT-29, HT29, colon cancer cells, 0.3 to 300 nM
NB69 cells = assay: Cell growth measurement test, 72 hours; conditions: Homo sapiens, NB69, without MYCN amplification, 0.3 to 300 nM
[1] = system: TGW cells (MYCN, 60 copies); assay: Cell growth curve, Incucyte culture time-lapse microscope; conditions: 1 to 100 nM, FIG. 32
Method: (§2) The cells were seeded in each well of a 96-well plate at a cell density of 1000 cells/50 μl/well, and were then cultured under conditions of 37° C., 5% CO2, and saturated humidity for 24 hours. On the following day, the culture media was replaced with a culture media, to which a DMSO control, or 1 nM, 3 nM, 10 nM, 30 nM or 100 nM MYCNA1 had been added, and the resulting cells were then observed under an Incucyte culture time-lapse microscope (Essen Instruments, Ann Arbor, Mich.) every 6 hours. A growth curve was produced from an imaging plate using Incucyte system (Essen Instruments, Ann Arbor, Mich.). The cells used in the experiment were neuroblastoma cell lines having MYCN amplification, IMR-32 cells (MYCN, 25 copies) and TGW cells (MYCN, 60 copies). The cells of each type were cultured in a DMEM, 10% FBS and 1% Pen/St medium, and in an RPMI1640, 10% FBS and 1% Pen/St medium, respectively.

[2] = system: IMR-32 cells (MYCN, 25 copies); assay: as above; conditions: IMR-32, 1 to 100 nM, FIG. 32
Method: as §2

Row | Structure (SMILES) | IC50 (MCF7 cells) [nM] | IC50 (IMR-32 cells; IMR-32, IMR32, with MYCN amplification, 0.3 to 300 nM) [nM] | IC50 (TGW cells; TGW, with MYCN amplification, 0.3 to 300 nM) [nM] | IC50 (HDF cells) [nM] | IC50 (HT29 cells) [nM] | IC50 (NB69 cells) [nM] | cell growth (growth curve) [1] | cell growth (growth curve) [2] | IC50 (IMR-32 cells; IMR-32 cells, 1 to 100 nM, FIG. 33) [nM] | IC50 (TGW cells; TGW cells, 1 to 100 nM, FIG. 33) [nM]
1 | CC(=O)Nc1cn(C)c(C(=O)Nc2cn(C)c(C(=O)Nc3cn(C)c(C(=O)NCCC(=O)Nc4cn(C)c(C(=O)Nc5cc(C(=O)Nc6cc(C(=O)NCCCC(=O)Nc7cn(C)c(C(=O)Nc8cn(C)c(C(=O)Nc9cc(C(=O)NCCC(=O)Nc%10cc(C(=O)Nc%11ccc%12[nH]c(C(=O)N%13CC(CCl)c%14c%13cc(O)c%13ccccc%14%13)cc%12c%11)n(C)c%10)n(C)c9)n8)n7)n(C)c6)n(C)c5)n4)n3)n2)n1 (stereo not shown) [MYCNA3] | 152 | 1.1 | 3.7 | 56.6 | 240 | 77 |  |  |  | 
2 | CC(=O)Nc1cn(C)c(C(=O)Nc2cc(C(=O)Nc3cc(C(=O)NCCC(=O)Nc4cn(C)c(C(=O)Nc5cc(C(=O)NCCCC(=O)Nc6cc(C(=O)Nc7cc(C(=O)NCCC(=O)Nc8cc(C(=O)Nc9ccc%10[nH]c(C(=O)N%11CC(CCl)c%12c%11cc(O)c%11ccccc%12%11)cc%10c9)n(C)c8)n(C)c7)n(C)c6)n(C)c5)n4)n(C)c3)n(C)c2)n1 (stereo not shown) [MYCNA1] |  |  |  |  |  |  | suppressed by MYCNA1 in a concentration-dependent manner | suppressed by MYCNA1 in a concentration-dependent manner | 9.7 | 12.9

Source: US11185593B2, “Alkylating agent for alkylating target with driver oncogene mutation” (Chiba Prefecture, priority 2013, dated 2021)
